This is an account of results in article PMC9168271, “Discovery of Novel Tetrahydro-β-carboline Containing Aminopeptidase N Inhibitors as Cancer Chemosensitizers” (Frontiers in Oncology, 2022).

Read-outs that look alike come from different tables or passages of the source.

For the assay, the target named is Aminopeptidase N (APN, CD13) (Homo sapiens, UniProt P15144). Briefly: APN enzyme inhibitory assay, supernatant of K562-CD13 cells as enzyme source, L-leucine-p-nitro anilide substrate.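 As to all read-outs here: substrate L-leucine-p-nitro anilide used at 1.6 mM, with enzyme from sonicated APN-overexpressing K562 cell lysate supernatant, run in 96-well plates.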 Conditions: for inhibition at 30 µM: read-out: Inhibitory rate (%).
Sequence of Aminopeptidase N (APN, CD13) (P15144 whole entry): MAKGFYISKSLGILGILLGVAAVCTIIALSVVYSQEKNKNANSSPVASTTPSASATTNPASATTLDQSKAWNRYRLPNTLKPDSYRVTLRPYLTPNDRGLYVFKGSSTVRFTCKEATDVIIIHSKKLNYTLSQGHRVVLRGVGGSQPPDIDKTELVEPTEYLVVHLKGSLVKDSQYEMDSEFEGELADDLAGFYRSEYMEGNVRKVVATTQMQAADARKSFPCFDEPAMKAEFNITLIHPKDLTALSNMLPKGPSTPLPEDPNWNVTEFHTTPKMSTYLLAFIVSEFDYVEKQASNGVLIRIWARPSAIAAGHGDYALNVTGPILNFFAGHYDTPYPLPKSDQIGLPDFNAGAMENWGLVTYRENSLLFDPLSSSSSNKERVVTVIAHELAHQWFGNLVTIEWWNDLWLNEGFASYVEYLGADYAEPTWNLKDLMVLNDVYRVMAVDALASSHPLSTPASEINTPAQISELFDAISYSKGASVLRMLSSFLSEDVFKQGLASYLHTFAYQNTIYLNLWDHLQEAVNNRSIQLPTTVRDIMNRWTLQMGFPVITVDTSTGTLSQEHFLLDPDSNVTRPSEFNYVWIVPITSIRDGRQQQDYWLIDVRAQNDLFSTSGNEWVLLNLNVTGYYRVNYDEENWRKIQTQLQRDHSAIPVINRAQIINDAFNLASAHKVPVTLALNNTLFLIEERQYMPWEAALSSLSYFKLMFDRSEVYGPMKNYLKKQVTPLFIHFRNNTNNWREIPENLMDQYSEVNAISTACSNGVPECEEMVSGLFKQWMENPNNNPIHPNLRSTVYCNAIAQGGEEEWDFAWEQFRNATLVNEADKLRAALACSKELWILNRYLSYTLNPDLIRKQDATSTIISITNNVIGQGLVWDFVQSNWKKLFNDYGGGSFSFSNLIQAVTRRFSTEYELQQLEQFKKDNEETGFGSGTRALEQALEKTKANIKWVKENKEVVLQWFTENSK

Method: In the enzyme inhibitory assay, K562-CD13 monoclonal cells were used as APN enzyme source as described in our previous work ([27]).
K562 cells with overexpression of APN were added into PBS for ultrasonic crushing, centrifuged for 10 minutes, and supernatant was taken as enzyme source and added into 96-well plate. Different concentrations of compounds were added subsequently, and 1.6 mM L-leucine-p-nitro anilide was used as substrate. After 30 minutes of reaction, the APN enzyme activity was measured at 405 nm absorbance. The inhibition rate of APN activity was analyzed by the formula (Od control OD tested)/Od control 100%.

For `O=C(Cn1c2c(c3ccccc31)CCN(C(=O)c1ccc(C(F)(F)F)cc1)C2)NO` [Compound D1, N-hydroxy-2-(2-(4-(trifluoromethyl)benzoyl)-1,2,3,4-tetrahydro-9H-pyrido[3,4-b]indol-9-yl)acetamide], the inhibition at 30 µM stood at 35 ± 1.51%.
`O=C(NO)c1ccc(Cn2c3c(c4ccccc42)CCN(C(=O)c2ccc(C(F)(F)F)cc2)C3)cc1` [Compound D2, N-hydroxy-4-((2-(4-(trifluoromethyl)benzoyl)-1,2,3,4-tetrahydro-9H-pyrido[3,4-b]indol-9-yl)methyl)benzamide]: the inhibition at 30 µM is 13.3 ± 3.25%.
With `O=C(Cn1c2c(c3ccccc31)CCN(C(=O)c1ccccc1)C2)NO` [Compound D3, 2-(2-benzoyl-1,2,3,4-tetrahydro-9H-pyrido[3,4-b]indol-9-yl)-N-hydroxyacetamide], the IC50 stood at 6.24 ± 0.43 µM and the inhibition at 30 µM turned out to be 74.4 ± 6.42%.
In the case of `O=C(NO)c1ccc(Cn2c3c(c4ccccc42)CCN(C(=O)c2ccccc2)C3)cc1` [Compound D4, 4-((2-benzoyl-1,2,3,4-tetrahydro-9H-pyrido[3,4-b]indol-9-yl)methyl)-N-hydroxybenzamide], the inhibition at 30 µM stood at 19.4 ± 4.53%.
Turning to `O=C(Cn1c2c(c3ccccc31)CCN(C(=O)c1ccccc1C(F)(F)F)C2)NO` [Compound D5, N-hydroxy-2-(2-(2-(trifluoromethyl)benzoyl)-1,2,3,4-tetrahydro-9H-pyrido[3,4-b]indol-9-yl)acetamide], the IC50 stood at 14.9 ± 1.03 µM and the inhibition at 30 µM was determined as 62.9 ± 8.72%.
On to `O=C(NO)c1ccc(Cn2c3c(c4ccccc42)CCN(C(=O)c2ccccc2C(F)(F)F)C3)cc1` [Compound D6, N-hydroxy-4-((2-(2-(trifluoromethyl)benzoyl)-1,2,3,4-tetrahydro-9H-pyrido[3,4-b]indol-9-yl)methyl)benzamide], for which the inhibition at 30 µM was 15.3 ± 3.66%.
Take `COc1ccccc1C(=O)N1CCc2c(n(Cc3ccc(C(=O)NO)cc3)c3ccccc23)C1` [Compound D7, N-hydroxy-4-((2-(2-methoxybenzoyl)-1,2,3,4-tetrahydro-9H-pyrido[3,4-b]indol-9-yl)methyl)benzamide]: the inhibition at 30 µM is 17.9 ± 0.84%.
For `COc1ccccc1C(=O)N1CCc2c(n(CC(=O)NO)c3ccccc23)C1` [Compound D8, N-hydroxy-2-(2-(2-methoxybenzoyl)-1,2,3,4-tetrahydro-9H-pyrido[3,4-b]indol-9-yl) acetamide], the “Inhibitory rate (%)” value (compound at 30 µM, mean of at least three experiments) is recorded as 56.7±0.42%. The molecule also yielded an IC50 (mean of at least three experiments) of 25 ± 3.32 µM.
Regarding `COc1ccc(C(=O)N2CCc3c(n(Cc4ccc(C(=O)NO)cc4)c4ccccc34)C2)cc1` [Compound D9, N-hydroxy-4-((2-(4-methoxybenzoyl)-1,2,3,4-tetrahydro-9H-pyrido[3,4-b]indol-9-yl)methyl)benzamide], the inhibition at 30 µM was 24 ± 0.25%.
On to `O=C(Cn1c2c(c3ccccc31)CCN(C(=O)c1ccc(F)cc1)C2)NO` [Compound D10, 2-(2-(4-fluorobenzoyl)-1,2,3,4-tetrahydro-9H-pyrido[3,4-b]indol-9-yl)-N-hydroxyacetamide], for which the inhibition at 30 µM amounted to 42.5 ± 1.42%.
As for `O=C(NO)c1ccc(Cn2c3c(c4ccccc42)CCN(C(=O)c2ccc(F)cc2)C3)cc1` [Compound D11, 4-((2-(4-fluorobenzoyl)-1,2,3,4-tetrahydro-9H-pyrido[3,4-b]indol-9-yl)methyl)-N-hydroxybenzamide], the inhibition at 30 µM was 35 ± 4.57%.
Turning to `O=C(NO)c1ccc(Cn2c3c(c4ccccc42)CCN(C(=O)c2cccc(F)c2)C3)cc1` [Compound D13, 4-((2-(3-fluorobenzoyl)-1,2,3,4-tetrahydro-9H-pyrido[3,4-b]indol-9-yl)methyl)-N-hydroxybenzamide], the inhibition at 30 µM came out at 13.2 ± 0.4%.
Regarding `O=C(NO)c1ccc(Cn2c3c(c4ccccc42)CCN(C(=O)c2ccccc2F)C3)cc1` [Compound D15, 4-((2-(2-fluorobenzoyl)-1,2,3,4-tetrahydro-9H-pyrido[3,4-b]indol-9-yl)methyl)-N-hydroxybenzamide], the inhibition at 30 µM was 28.7 ± 2.75%.
With `Cc1ccccc1C(=O)N1CCc2c(n(Cc3ccc(C(=O)NO)cc3)c3ccccc23)C1` [Compound D17, N-hydroxy-4-((2-(2-methylbenzoyl)-1,2,3,4-tetrahydro-9H-pyrido[3,4-b]indol-9-yl)methyl)benzamide], the inhibition at 30 µM stood at 23.6 ± 4.51%.
Still for that read-out and setting: the value for `CCc1ccc(C(=O)N2CCc3c(n(CC(=O)NO)c4ccccc34)C2)cc1` [Compound D18, 2-(2-(4-ethylbenzoyl)-1,2,3,4-tetrahydro-9H-pyrido[3,4-b]indol-9-yl)-N-hydroxyacetamide] was 53.2 ± 2.08%; that for `CCc1ccc(C(=O)N2CCc3c(n(Cc4ccc(C(=O)NO)cc4)c4ccccc34)C2)cc1` [Compound D19, 4-((2-(4-ethylbenzoyl)-1,2,3,4-tetrahydro-9H-pyrido[3,4-b]indol-9-yl)methyl)-N-hydroxybenzamide] was 19.5 ± 4.22%.
As to `O=C(NO)c1ccc(Cn2c3c(c4ccccc42)CCN(C(=O)c2ccccc2Cl)C3)cc1` [Compound D20, 4-((2-(2-chlorobenzoyl)-1,2,3,4-tetrahydro-9H-pyrido[3,4-b]indol-9-yl)methyl)-N-hydroxybenzamide], the inhibition at 30 µM was 19.1 ± 4.17%.
As to `O=C(Cn1c2c(c3ccccc31)CCN(C(=O)c1cccc(Br)c1)C2)NO` [Compound D21, 2-(2-(3-bromobenzoyl)-1,2,3,4-tetrahydro-9H-pyrido[3,4-b]indol-9-yl)-N-hydroxyacetamide], the IC50 was determined as 7.82 ± 1.05 µM and the inhibition at 30 µM is 78.2 ± 5.43%.
Consider `O=C(NO)c1ccc(Cn2c3c(c4ccccc42)CCN(C(=O)c2cccc(Br)c2)C3)cc1` [Compound D22, 4-((2-(3-bromobenzoyl)-1,2,3,4-tetrahydro-9H-pyrido[3,4-b]indol-9-yl)methyl)-N-hydroxybenzamide], for which the inhibition at 30 µM stood at 19.2 ± 3.7%.
For the molecule `O=C(NO)c1ccc(Cn2c3c(c4ccccc42)CCN(C(=O)c2ccc(F)cc2F)C3)cc1` [Compound D23, 4-((2-(2,4-difluorobenzoyl)-1,2,3,4-tetrahydro-9H-pyrido[3,4-b]indol-9-yl)methyl)-N-hydroxybenzamide], the inhibition at 30 µM is 65 ± 5.97%.
`O=C(Cn1c2c(c3ccccc31)CCN(C(=O)c1cc(F)cc(F)c1)C2)NO` [Compound D24, 2-(2-(3,5-difluorobenzoyl)-1,2,3,4-tetrahydro-9H-pyrido[3,4-b]indol-9-yl)-N-hydroxyacetamide]: inhibition was half-maximal at 7.13 ± 0.13 µM (IC50) and the inhibition at 30 µM was determined as 71.3 ± 4.25%.
`O=C(NO)c1ccc(Cn2c3c(c4ccccc42)CCN(C(=O)c2cc(F)cc(F)c2)C3)cc1` [Compound D25, 4-((2-(3,5-difluorobenzoyl)-1,2,3,4-tetrahydro-9H-pyrido[3,4-b]indol-9-yl)methyl)-N-hydroxybenzamide]: the inhibition at 30 µM was found to be 27.9 ± 5.85%.
On the same count and under the same terms, the value for `CCCc1ccc(C(=O)N2CCc3c(n(CC(=O)NO)c4ccccc34)C2)cc1` [Compound D26, N-hydroxy-2-(2-(4-propylbenzoyl)-1,2,3,4-tetrahydro-9H-pyrido[3,4-b]indol-9-yl)acetamide] was 53.1 ± 7.31%; that for `CCCc1ccc(C(=O)N2CCc3c(n(Cc4ccc(C(=O)NO)cc4)c4ccccc34)C2)cc1` [Compound D27, N-hydroxy-4-((2-(4-propylbenzoyl)-1,2,3,4-tetrahydro-9H-pyrido[3,4-b]indol-9-yl)methyl)benzamide] was 20.4 ± 5.78%.
Take `O=C(Cn1c2c(c3ccccc31)CCN(C(=O)c1cc(F)ccc1F)C2)NO` [Compound D28, 2-(2-(2,5-difluorobenzoyl)-1,2,3,4-tetrahydro-9H-pyrido[3,4-b]indol-9-yl)-N-hydroxyacetamide]: the 50% inhibitory concentration (IC50) came out at 4.85 ± 0.55 µM and the inhibition at 30 µM turned out to be 78 ± 3.95%.
As for `O=C(Cn1c2c(c3ccccc31)CCN(C(=O)c1c(F)cccc1Cl)C2)NO` [Compound D29, 2-(2-(2-chloro-6-fluorobenzoyl)-1,2,3,4-tetrahydro-9H-pyrido[3,4-b]indol-9-yl)-N-hydroxyacetamide], it took 9.23 ± 0.67 µM to reach half-maximal inhibition (IC50) and the inhibition at 30 µM is 60 ± 4.95%.

Broadly, the IC50 is the concentration at which inhibition is half-maximal. Low values mean inhibition by little substance, high ones a need for much substance.
